How the values were obtained:
BRD4 long isoform = molecular target: T1, BRD4 long isoform (Homo sapiens, UniProt O60885); assay: BRD4 degradation assay (Western blot, MDA-MB-468 cells), long isoform; assay type: cell-based; conditions: MDA-MB-468, n = 2
T1 construct: endogenous in cells; host or cells: MDA-MB-468
Procedure: (§1) BRD4 Degradation Assay Protocol Summary
(§2) MDA-MB-468 cells were cultured routinely in DMEM supplemented with 10% heat inactivated FBS and 1% Penicillin-Streptomycin (Thermofisher Scientific) at 37° C. 5% CO2. Cells were seeded in 6-well plates at 4*10^5 cells per well and left to adhere overnight. Example compounds were solubilised in DMSO to make 10 mM stocks followed by serial dilutions in DMSO to 200× final concentration. These were further diluted in culture media to give 20× treatment stocks before addition to cells to a 1× final concentration. Cells were then incubated at 37° C. 5% CO2 for 24 or 48 hours after which cells were lysed in RIPA buffer supplemented with cOmplete Mini Protease Inhibitor Cocktail and PhosSTOP™ (Roche). Lysates were clarified by centrifugation at 13,000 RPM for 10 minutes and the protein concentration of the resulting supernatants determined by BCA assay (ThermoFisher Scientific) as per manufacturer's instructions. Lysates were denatured and reduced in NuPAGE LDS sample buffer and sample reducing agent before 10 μg was loaded onto NuPAGE […] Tris-Acetate Mini Protein Gels (ThermoFisher Scientific). Protein was transferred to nitrocellulose membranes using a Trans-Blot Turbo Transfer System (Bio-Rad) before blocking for 1 hour in Intercept (TBS) Blocking Buffer (Li-Cor). Membranes were then incubated overnight with BRD4 (ab128874; Abcam) and α-tubulin (T6074; Sigma-Aldrich) antibodies diluted 1:2000 and 1:16,000 respectively in Tris-buffered saline 0.05% Tween 20 (TBS-T). The following day, membranes were washed with TBS-T before addition of anti-rabbit IRDye 800 CW and anti-mouse IRDye 680LT secondary antibodies (LiCor) (diluted 1:10,000 in TBS-T) for one hour. Membranes were then washed with TBS-T before imaging using a LICOR Odyssey Infrared Imaging System with Image Studio Ver 5.2 software (LiCor). Densitometry analysis was carried out in the LiCor image studio software where BRD4 signal was normalised to α-tubulin signal. Percentage degradation of BRD4 relative to the DMSO treated negative control was calculated as: =100−(signal of interest/signal of control sample*100). BRD4 degradation by dBET1 was used as positive control for each plate. Data obtained for the percentage degradation of BRD4 upon treatment with the Example compounds 1-6 and Comparative Example compounds 1-3 at 24 hour incubation are shown in Table 2 and with 48 hour incubation are shown in Table 3.

[1] = system: NRF2 mediated gene NAD(P)H:quinone acceptor oxidoreductase 1 (NQO1) mRNA in BEAS-2B cells; assay: Beas2B NQO1 mRNA cell based assay; conditions: Homo sapiens, 24 h, vs vehicle (0.1% DMSO), read-out: EC50 (increase in NQO1 mRNA)
Procedure: Beas2B NQO1 mRNA Cell Based Assay
The up-regulation of the NRF2 mediated gene NAD(P)H:quinone acceptor oxidoreductase 1 (NQO1) was measured using the following assay method: BEAS-2B cells (ATCC CRL-9609) were plated in 96-well clear plates at 20,000 cells/well in 75 μL of cell culture media and incubated overnight (37° C., 5% CO2). On day 2, 25 μL of compound or controls were added to the cells for 24 h. On day 3, the medium was aspirated from the plate and the Cells-to-CT™ 1-Step TaqMan® Kit (Ambion A25603) was used to perform expression analysis directly from cultured cells without RNA purification according to the manufacturer's instructions.
Briefly, cells were washed with ice cold PBS and 22.5 μL of room-temperature DNase/Lysis solution was added to the cells and incubated at room temperature for 5 minutes. To stop the reaction, 2.25 μL of stop solution was added to the cell lysate. The samples were diluted 1:5 using nuclease free water and 2.5 μL transferred into the PCR plate. Real-time PCR was performed using the C-1000 Thermal Cycler (Bio-Rad) using human beta actin as the internal control. The cDNA was amplified with a specific primer for NQO1 using the 1-step RT-PCR master mix (Ambion Cells-to-CT™ 1-Step TaqMan® Kit A25603). The primers/probes sets that were used for amplification of cDNA were obtained from TaqMan Gene Expression Assays (Applied Biosystems). The comparative CT (ΔΔCT) relative quantification method was used to calculate the relative mRNA level of the target gene NQO1 as described in the Applied Biosystems Chemistry Guide. The data are expressed as an increase in target gene mRNA compared to vehicle (0.1% DMSO) control and the EC50 values were determined by fitting the data to a four parameter logistic fit using XLfit or XE Runner within ActivityBase.

BRD4 short isoform = molecular target: T2, BRD4 short isoform (Homo sapiens, UniProt O60885); assay: BRD4 degradation assay (Western blot, MDA-MB-468 cells), short isoform; assay type: cell-based; conditions: MDA-MB-468, n = 2
T2 construct: endogenous in cells; host or cells: MDA-MB-468
Procedure: as §1, §2

SMILES | % Mean Degradation of BRD4 (BRD4 long isoform; 24 h, 0.1 μM) | % Mean Degradation of BRD4 (BRD4 long isoform; 24 h, 1 μM) | % Mean Degradation of BRD4 (BRD4 long isoform; 24 h, 5 μM) | % Mean Degradation of BRD4 (BRD4 long isoform; 48 h, 0.1 μM) | % Mean Degradation of BRD4 (BRD4 long isoform; 48 h, 1 μM) | % Mean Degradation of BRD4 (BRD4 long isoform; 48 h, 5 μM) | EC50 [1] | % Mean Degradation of BRD4 (BRD4 short isoform; 24 h, 0.1 μM) | % Mean Degradation of BRD4 (BRD4 short isoform; 24 h, 1 μM) | % Mean Degradation of BRD4 (BRD4 short isoform; 24 h, 5 μM) | % Mean Degradation of BRD4 (BRD4 short isoform; 48 h, 0.1 μM) | % Mean Degradation of BRD4 (BRD4 short isoform; 48 h, 1 μM) | % Mean Degradation of BRD4 (BRD4 short isoform; 48 h, 5 μM)
Cc1sc2c(c1C)C(c1ccc(Cl)cc1)=N[C@@H](CC(=O)NCCOCCNC(=O)[C@@]1(C)CCCC[C@H]1C(=O)N1CCc3c(Cl)ccc(OCc4nnn(C)c4C)c3[C@H]1CN1CC3(CC3)CC1=O)c1nnc(C)n1-2 [Comparative Example 2, (1S,2R)-2-((S)-5-chloro-8-((1,5-dimethyl-1H-1,2,3-triazol-4-yl)methoxy)-1-((6-oxo-5-azaspiro[2.4]heptan-5-yl)methyl)-1,2,3,4-tetrahydroisoquinoline-2-carbonyl)-N-(2-(2-(2-((S)-4-(4-chlorophenyl)-2,3,9-trimethyl-6H-thieno[3,2-f][1,2,4]triazolo[4,3-a][1,4]diazepin-6-yl)acetamido)ethoxy)ethyl)-1-methylcyclohexane-1-carboxamide, reference compound] | −33% | 3% | 14% | −26% | −61% | −124% | 75 nM | −6% | 9% | 26% | −15% | 13% | 20%
CNC(=O)[C@@]1(C)CCCC[C@H]1C(=O)N1CCc2c(Cl)ccc(OCc3nnn(CCNC(=O)CNC(=O)C[C@@H]4N=C(c5ccc(Cl)cc5)c5c(sc(C)c5C)-n5c(C)nnc54)c3C)c2[C@H]1CN1CC2(CC2)CC1=O [Example 2] | 77% | 93% | 91% | 78% | 93% | 94% | 458 nM | 84% | 95% | 97% | 71% | 92% | 93%
Cc1sc2c(c1C)C(c1ccc(Cl)cc1)=N[C@@H](CC(=O)NCC(=O)NCCOCc1c(COc3ccc(Cl)c4c3[C@@H](CN3CC5(CC5)CC3=O)N(C(=O)[C@@H]3CCCC[C@]3(C)C(=O)O)CC4)nnn1C)c1nnc(C)n1-2 [Example 3, (1S,2R)-2-((S)-5-Chloro-8-((5-((2-(2-(2-((S)-4-(4-chlorophenyl)-2,3,9-trimethyl-6H-thieno[3,2-f][1,2,4]triazolo[4,3-a][1,4]diazepin-6-yl)acetamido)acetamido)ethoxy)methyl)-1-methyl-1H-1,2,3-triazol-4-yl)methoxy)-1-((6-oxo-5-azaspiro[2.4]heptan-5-yl)methyl)-1,2,3,4-tetrahydroisoquinoline-2-carbonyl)-1-methylcyclohexane-1-carboxylic acid] | 23% | 80% | 75% | 14% | 67% | 60% | 280 nM | 31% | 87% | 87% | 25% | 77% | 79%
Cc1sc2c(c1C)C(c1ccc(Cl)cc1)=N[C@@H](CC(=O)NCC(=O)NCCOCC(=O)N1CC[C@H](Oc3ccc(Cl)c4c3[C@@H](CN3CC5(CC5)CC3=O)N(C(=O)[C@@H]3CCCC[C@]3(C)C(=O)O)CC4)C1)c1nnc(C)n1-2 [Example 6, (1S,2R)-2-((S)-5-Chloro-8-(((S)-1-(2-(2-(2-(2-((S)-4-(4-chlorophenyl)-2,3,9-trimethyl-6H-thieno[3,2-f][1,2,4]triazolo[4,3-a][1,4]diazepin-6-yl)acetamido)acetamido)ethoxy)acetyl)pyrrolidin-3-yl)oxy)-1-((6-oxo-5-azaspiro[2.4]heptan-5-yl)methyl)-1,2,3,4-tetrahydroisoquinoline-2-carbonyl)-1-methylcyclohexane-1-carboxylic acid] | 9% | 52% | 95% | −27% | 43% | 82% | 2490 nM | 21% | 60% | 95% | 1% | 44% | 81%
Cc1sc2c(c1C)C(c1ccc(Cl)cc1)=N[C@@H](CC(=O)NCCC(=O)NCCOCc1c(COc3ccc(Cl)c4c3[C@@H](CN3CC5(CC5)CC3=O)N(C(=O)[C@@H]3CCCC[C@]3(C)C(=O)O)CC4)nnn1C)c1nnc(C)n1-2 [Example 4, (1S,2R)-2-((S)-5-Chloro-8-((5-((2-(3-(2-((S)-4-(4-chlorophenyl)-2,3,9-trimethyl-6H-thieno[3,2-f][1,2,4]triazolo[4,3-a][1,4]diazepin-6-yl)acetamido)propanamido)ethoxy)methyl)-1-methyl-1H-1,2,3-triazol-4-yl)methoxy)-1-((6-oxo-5-azaspiro[2.4]heptan-5-yl)methyl)-1,2,3,4-tetrahydroisoguinoline-2-carbonyl)-1-methylcyclohexane-1-carboxylic acid] | −37% | 26% | 43% | −19% | 56% | 71% | 660 nM | 18% | 65% | 75% | −2% | 65% | 77%
